Measured values as given in patent publication US9765018B2, “IDO inhibitors” (BRISTOL-MYERS SQUIBB COMPANY, priority 2013, dated 2017).

How the values were obtained:
Human IDO1 = Human IDO1 (Homo sapiens (Human), UniProt P14902); test: IDO Kynurenine Assay with Human IDO1/HEK293 Cells; type: cell-based; settings: HEK293 cells with human IDO1; read-out: HEK human IDO-1 (IC50)
Description: IDO Kynurenine Assay with Human IDO1/HEK293 Cells
Human IDO1/HEK293 cells were seeded at 10,000 cells per 50 uL per well with RPMI/phenol red free media contains 10% FBS in a 384-well black wall clear bottom tissue culture plate (Matrix Technologies LLC) 125 nL of certain concentration of compound was then added to each well using ECHO liquid handling systems. The cells were incubated for 20 hours in 37° C. incubator with 5% CO2.
The compound treatments were stopped by adding Trichloroacetic Acid (Sigma-Aldrich) to a final concentration at 0.2%. The cell plate was further incubated at 50° C. for 30 minute. The equal volume supernatant (20 uL) and 0.2% (w/v) Ehrlich reagent (4-dimethylaminobenzaldehyde, Sigma-Aldrich) in glacial acetic acid were mixed in a new clear bottom 384-well plate. This plate was then incubated at room temperature for 30 minute. The absorbance at 490 nm was measured on Envision plate reader.

IDO [1] = target: T1, IDO (Homo sapiens (Human), UniProt P14902); test: Kynurenine assay in IFN-γ-stimulated Hela cells; type: cell-based; settings: 20 h, read-out: Hela Kyurenine (IC50)
In short: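 Kynurenine in supernatant is read at 490 nm after Ehrlich reagent (10 min RT), following TCA stop and 30 min at 50° C hydrolysis. Before that, Hela cells in phenol red-free RPMI/10% FBS were co-treated 20 h at 37° C with 100 ng/mL IFN-γ and compound (30 μM top, 3-fold series to 1.5 nM).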

IDO [2] = target: T1, IDO; test: LLE_IDO_ABS_DR (IDO assay, method not described)

Sequence of Human IDO1 (P14902 whole entry): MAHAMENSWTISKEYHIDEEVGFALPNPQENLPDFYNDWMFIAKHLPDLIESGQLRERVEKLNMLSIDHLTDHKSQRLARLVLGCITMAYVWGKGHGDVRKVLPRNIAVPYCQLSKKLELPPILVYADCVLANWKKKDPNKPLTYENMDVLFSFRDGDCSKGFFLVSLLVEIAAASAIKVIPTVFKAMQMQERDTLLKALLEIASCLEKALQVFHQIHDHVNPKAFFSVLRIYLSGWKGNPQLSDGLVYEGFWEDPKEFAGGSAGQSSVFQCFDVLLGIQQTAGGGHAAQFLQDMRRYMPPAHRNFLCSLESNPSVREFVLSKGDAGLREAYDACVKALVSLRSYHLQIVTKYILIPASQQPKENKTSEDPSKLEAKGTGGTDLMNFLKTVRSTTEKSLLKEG
T1 sequence (P14902 whole entry): as above

IC50 (Human IDO1) [nM] | IC50 (IDO [1]) [nM] | IC50 (IDO [2]) [nM] | Compound
7500 | 1020 | – | Cc1ccccc1NC(=O)Nc1cc(-c2cccc(C(=O)O)c2)ccc1Oc1ccccc1C(C)(C)C [Example 224, 4′-(2-tert-butylphenoxy)-3′-(3-o-tolylureido) biphenyl-3-carboxylic acid]
20 | – | 30 | CCCOc1c(CCCc2ccccc2)cc(-c2ccccc2C(=O)O)cc1NC(=O)Nc1ccc(C)cc1 [Example 36, 3′-(3-Phenylpropyl)-4′-propoxy-5′-(3-p-tolylureido)biphenyl-2-carboxylic acid]
4.49 | – | 3.25 | CCCC(CCC)Oc1c(Br)cc(-c2ccccc2-c2nnn[nH]2)cc1NC(=O)Nc1ccccc1F [Example 287]
5170 | 2240 | – | COc1ccc(-c2ccc(Oc3cccc4c3OC(C)(C)C4)c(NC(=O)Nc3ccc(C)cc3)c2)cc1C(=O)O [Example 135, 4′-(2,2-dimethyl-2,3-dihydrobenzofuran-7-yloxy)-4-methoxy-3′-(3-p-tolylureido)biphenyl-3-carboxylic acid]
6.49 | – | 5.56 | CC/C=C/Cc1cc(-c2ccccc2-c2nnn[nH]2)cc(NC(=O)Nc2ccccc2F)c1OCCC [Example 284]
60 | – | 30 | CCCOc1c(Br)cc(-c2ccccc2-c2nnn[nH]2)cc1NC(=O)Nc1ccc(C)cc1 [Example 283]
30 | – | 10 | O=C(Nc1ccc(OC(F)(F)F)cc1)Nc1cc(-c2ccccc2-c2nnn[nH]2)cc(CC2CC2)c1OCC1CC1 [Example 321]
40 | – | 40 | O=C(Nc1ccc(C2CC2)cc1)Nc1cc(-c2ccccc2-c2nnn[nH]2)cc(CC2CC2)c1OCCC(F)(F)F [Example 316]
7500 | 1810 | – | COc1ccc(NC(=O)Nc2cc(-c3cccc(C(=O)O)c3)ccc2Oc2ccccc2C(C)(C)C)cc1 [Example 230, 4′-(2-tert-butylphenoxy)-3′-(3-(4-methoxyphenyl)ureido)biphenyl-3-carboxylic acid]
30 | – | 30 | CCCOc1c(CCC)cc(-c2ccccc2-c2nnn[nH]2)cc1NC(=O)Nc1ccc(C)cc1 [Example 16, 1-(4-Propoxy-5-propyl-2′-(1H-tetrazol-5-yl)-[1,1′-biphenyl]-3-yl)-3-(p-tolyl)urea]
610 | – | 90 | CCCC(Oc1ccc(-c2ccccc2-c2nnn[nH]2)cc1NC(=O)Nc1ccc(C)cc1)c1ccccc1Cl (stereo not shown) [Example 313]
9190 | 790 | – | Cc1ccc(NC(=O)Nc2cc(-c3cccc(C(=O)O)c3)ccc2Oc2ccccc2C(C)(C)C)cc1 [Example 226, 4′-(2-tert-butylphenoxy)-3′-(3-p-tolylureido) biphenyl-3-carboxylic acid]
7500 | 2260 | – | Cc1ccc(NC(=O)Nc2cc(-c3cc(Cl)cc(C(=O)O)c3)cnc2Oc2ccccc2C(C)(C)C)cc1 [Example 337]
6180 | 2420 | – | Cc1ccc(NC(=O)Nc2cc(-c3ccc(Cl)c(C(=O)O)c3)ccc2Oc2ccccc2C(C)(C)C)cc1 [Example 1, 4′-(2-tert-Butylphenoxy)-4-chloro-3′-(3-p-tolylureido)biphenyl-3-carboxylic acid]
20 | – | 9.95 | CCCOc1c(/C=C/C=C(F)F)cc(-c2ccccc2-c2nnn[nH]2)cc1NC(=O)Nc1ccc(C)cc1 [Example 30, (E)-1-(5-(4,4-Difluorobuta-1,3-dien-1-yl)-4-propoxy-2′-(1H-tetrazol-5-yl)-[1,1′-biphenyl]-3-yl)-3-(p-tolyl)urea]
7500 | 2890 | – | CC(C)(C)c1ccccc1Oc1ccc(-c2cccc(C(=O)O)c2)cc1NC(=O)Nc1ccc(Br)cc1 [Example 233, 3′-(3-(4-bromophenyl)ureido)-4′-(2-tert-butylphenoxy) biphenyl-3-carboxylic acid]
60 | – | 40 | Cc1cccc(NC(=O)Nc2cc(-c3ccccc3-c3nnn[nH]3)cc(CC3CC3)c2Oc2ccccc2)c1 [Example 323]
30 | – | 10 | C=CC(c1ccccc1)c1cc(-c2ccccc2-c2nnn[nH]2)cc(NC(=O)Nc2ccc(C)cc2)c1OCCC (racemic) [Example 8, 1-(5-(1-Phenylallyl)-4-propoxy-2′-(1H-tetrazol-5-yl)-[1,1′-biphenyl]-3-yl)-3-(p-tolyl)urea]
20 | – | 40 | CCCOc1c(CCCC(F)(F)F)cc(-c2ccccc2-c2nnn[nH]2)cc1NC(=O)Nc1ccc(C)cc1 [Example 31, 1-(4-Propoxy-2′-(1H-tetrazol-5-yl)-5-(4,4,4-trifluorobutyl)-[1,1′-biphenyl]-3-yl)-3-(p-tolyl)urea]
30 | – | 20 | C/C=C/Cc1cc(-c2ccccc2-c2nnn[nH]2)cc(NC(=O)Nc2ccc(C)cc2)c1OCCC [Example 19, (E)-1-(5-(But-2-en-1-yl)-4-propoxy-2′-(1H-tetrazol-5-yl)-[1,1′-biphenyl]-3-yl)-3-(p-tolyl)urea]
50 | – | 9.83 | CCCCCc1cc(-c2ccccc2-c2nnn[nH]2)cc(NC(=O)Nc2ccccc2F)c1OCCC [Example 289]
6190 | 2090 | – | COc1ccccc1Oc1ccc(-c2ccc(OC)c(C(=O)O)c2)cc1NC(=O)Nc1ccc(C)cc1 [Example 69, 4-methoxy-4′-(2-methoxyphenoxy)-3′-(3-p-tolylureido)biphenyl-3-carboxylic acid]
10 | – | 9.47 | CCCOc1c(C/C=C/C(F)(F)F)cc(-c2ccccc2-c2nnn[nH]2)cc1NC(=O)Nc1ccc(C)cc1 [Example 32, (E)-1-(4-Propoxy-2′-(1H-tetrazol-5-yl)-5-(4,4,4-trifluorobut-2-en-1-yl)-[1,1′-biphenyl]-3-yl)-3-(p-tolyl)urea]
30 | – | 30 | CCCOc1c(NC(=O)Nc2ccc(C)cc2)cc(-c2ccccc2-c2nnn[nH]2)cc1C(CC)c1ccccc1 (stereo not shown) [Example 298]
7500 | 2640 | – | CC(C)(C)c1ccccc1Oc1ccc(-c2cccc(C(=O)O)c2)cc1NC(=O)Nc1ccc(OC(F)F)cc1 [Example 223, 4′-(2-tert-butylphenoxy)-3′-(3-(4-(difluoromethoxy)phenyl)ureido) biphenyl-3-carboxylic acid]
90 | – | 50 | CCCOc1c(NC(=O)Nc2ccc(C)cc2)cc(-c2ccccc2-c2nnn[nH]2)cc1C(CC)CCCc1ccccc1 (stereo not shown) [compound 297]
7500 | 1890 | – | COc1cccc(NC(=O)Nc2cc(-c3cccc(C(=O)O)c3)ccc2Oc2ccccc2C(C)(C)C)c1 [Example 229, 4′-(2-tert-butylphenoxy)-3′-(3-(3-methoxyphenyl)ureido)biphenyl-3-carboxylic acid]

Compound | IC50 (Human IDO1) [nM] | IC50 (IDO [1]) [nM] | IC50 (IDO [2]) [nM]
CCCCc1cc(-c2ccccc2-c2nnn[nH]2)cc(NC(=O)Nc2ccc(C)cc2)c1OCCC [Example 22, 1-(5-Butyl-4-propoxy-2′-(1H-tetrazol-5-yl)-[1,1′-biphenyl]-3-yl)-3-(p-tolyl)urea] | 5.92 | – | 20
CCCOc1c(/C=C/CC(F)(F)F)cc(-c2ccccc2-c2nnn[nH]2)cc1NC(=O)Nc1ccc(C)cc1 [Example 29, (E)-1-(4-Propoxy-2′-(1H-tetrazol-5-yl)-5-(4,4,4-trifluorobut-1-en-1-yl)-[1,1′-biphenyl]-3-yl)-3-(p-tolyl)urea] | 30 | – | 30
